# According to EPA's ToxRefDB 2:
# Legend:
# rat [1] = conditions: Carcinogenicity, fischer, Oral, Feed, dose end: 78 week, group: systemic
# mouse [2] = conditions: Subchronic oral toxicity in rodents, b6c3f1, Feed, dose end: 8 week, group: systemic
# mouse [3] = conditions: Carcinogenicity, b6c3f1, Oral, Feed, dose end: 78 week, group: systemic
# rat [4] = conditions: Subchronic oral toxicity in rodents, fischer, Feed, dose end: 8 week, group: systemic
# rat [5] = conditions: Multigenerational reproductive toxicity study, sprague dawley, Oral, Water, dose end: 2 generation
# rat [6] = conditions: Carcinogenicity, fischer, Oral, Water, dose end: 103 week, group: systemic
# mouse [7] = conditions: Prenatal developmental toxicity study, cd1, Oral, Gavage/Intubation, dose end: 15 GD
# mouse [8] = conditions: Carcinogenicity, b6c3f1, Oral, Water, dose end: 103 week, group: systemic
# rat [9] = conditions: Combined chronic toxicity/carcinogenicity, sprague dawley, Oral, Feed, dose end: 24 month, group: systemic
# rat [10] = conditions: Multigenerational reproductive toxicity study, sprague dawley, Oral, Feed, dose end: 2 generation
# dog [11] = conditions: Subchronic oral toxicity in dogs, beagle, Capsule, dose end: 90 day, group: systemic, systemic / clinical chemistry / alanine aminotransferase (alt/sgpt) / alanine aminotransferase (alt/sgpt) + systemic / clinical chemistry / …
# dog [12] = conditions: Chronic toxicity, beagle, Oral, Capsule, dose end: 52 week, group: systemic
# rat [13] = conditions: Prenatal developmental toxicity study, wistar, Oral, Gavage/Intubation, dose end: 16 GD
# rabbit = conditions: Prenatal developmental toxicity study, new zealand white, Oral, Gavage/Intubation, dose end: 19 GD
# rat [14] = conditions: Subchronic oral toxicity in rodents, sprague dawley, Feed, dose end: 90 day, group: systemic
# mouse [15] = conditions: Subchronic oral toxicity in rodents, b6c3f1, Feed, dose end: 13 week, group: systemic, systemic / in life observation / body weight / body weight + systemic / in life observation / food consumption / food consumption
# rat [16] = conditions: Combined chronic toxicity/carcinogenicity, fischer, Oral, Feed, dose end: 2 year, group: systemic
# rat [17] = conditions: Subchronic oral toxicity in rodents, fischer, Feed, dose end: 13 week, group: systemic
# mouse [18] = conditions: Carcinogenicity, b6c3f1, Oral, Feed, dose end: 2 year, group: systemic
# rat [19] = conditions: Peri- and post-natal toxicity study (Segment III); long evans; Injection; Subcutaneous; dose end: 3 PND; group: developmental; developmental / developmental landmark / vaginal opening / vaginal opening
# rat [20] = conditions: Other (NonGuideline or Guideline Not Listed), sprague dawley, Oral, Gavage/Intubation, dose end: 7 day, group: cannot be grouped
# [21] = systemic / in life observation / body weight / body weight
# [22] = systemic / in life observation / body weight / body weight + systemic / pathology microscopic / urinary bladder / carcinoma + systemic / …
# [23] = systemic / in life observation / body weight / body weight + systemic / in life observation / mortality / mortality
# [24] = systemic / in life observation / body weight / body weight + systemic / pathology microscopic / gallbladder / hyperplasia
# [25] = systemic / in life observation / body weight / body weight + systemic / pathology microscopic / gallbladder / hyperplasia + systemic / …
# [26] = group: offspring, developmental / developmental landmark / preputial separation / preputial separation + systemic / in life observation / body weight / …
# [27] = group: parental, systemic / in life observation / body weight / body weight + systemic / in life observation / body weight / body weight gain + systemic / in…
# [28] = group: parental, systemic / in life observation / clinical signs / red or crusty deposits around eyes, ears, nose, or mouth + systemic / in life observation…
# [29] = group: reproductive, reproductive / offspring survival early / dead fetuses / dead fetuses
# [30] = systemic / in life observation / body weight / body weight + systemic / in life observation / water consumption / water consumption + …
# [31] = systemic / pathology microscopic / adrenal gland / pheochromocytoma nos + systemic / pathology microscopic / bone marrow / leukemia + …
# [32] = group: developmental, developmental / developmental malformation / mouth / jaw / cleft palate + systemic / in life observation / body weight / fetal weight
# [33] = group: maternal, systemic / in life observation / body weight / body weight + systemic / in life observation / body weight / body weight gain + systemic / in…
# [34] = systemic / in life observation / body weight / body weight + systemic / in life observation / water consumption / water consumption
# [35] = systemic / pathology microscopic / uterus / interstitial stromal tumor + systemic / in life observation / body weight / body weight + …
# [36] = systemic / hematology / platelet / platelet
# [37] = systemic / pathology microscopic / adrenal gland / vacuolization + systemic / pathology microscopic / liver / fatty change + systemic / …
# [38] = group: offspring, systemic / in life observation / body weight / offspring (pup) weight gain + systemic / pathology gross / liver / discolored + systemic / …
# [39] = group: parental, systemic / organ weight / liver / nos + systemic / pathology gross / liver / accentuated lobular pattern + systemic / pathology gross / …
# [40] = group: reproductive, reproductive / offspring survival early / litter size / litter size
# [41] = systemic / organ weight / liver / absolute + systemic / clinical chemistry / alanine aminotransferase (alt/sgpt) / alanine aminotransferase…
# [42] = group: developmental, developmental / developmental malformation / bone / delayed ossification + developmental / developmental malformation / bone / full …
# [43] = group: maternal, reproductive / offspring survival early / offspring survival early other / NOS + systemic / in life observation / body weight / body weight …
# [44] = group: developmental, systemic / in life observation / body weight / fetal weight
# [45] = group: developmental, systemic / in life observation / body weight / fetal weight + developmental / developmental malformation / bone / hole(s)
# [46] = group: maternal, systemic / in life observation / body weight / body weight gain + systemic / in life observation / food consumption / food consumption
# [47] = systemic / clinical chemistry / aminopyrine-n-demethylase / aminopyrine-n-demethylase
# [48] = systemic / in life observation / food consumption / food consumption
# [49] = systemic / in life observation / food consumption / food consumption + systemic / pathology microscopic / lung / adenoma/carcinoma combined…
# [50] = systemic / in life observation / body weight / body weight + systemic / in life observation / food consumption / food consumption
# [51] = systemic / clinical chemistry / alanine aminotransferase (alt/sgpt) / alanine aminotransferase (alt/sgpt) + systemic / clinical chemistry / …
# [52] = systemic / in life observation / body weight / body weight gain + systemic / in life observation / clinical signs / defecation + systemic / …
smiles,measurement,setting,value
"Nc1ccc(Cl)cc1N [4-Chloro-1,2-diaminobenzene]",LOAEL,rat [1]; [21],250 mg/kg/day
same,NOAEL,rat [1]; [21],< 250 mg/kg/day
same,LEL,rat [1]; [22],250 mg/kg/day
same,NEL,rat [1]; [22],< 250 mg/kg/day
same,LEL,mouse [2]; [21],1500 mg/kg/day
same,LOAEL,mouse [2]; [21],1500 mg/kg/day
same,NEL,mouse [2]; [23],150 mg/kg/day
same,NOAEL,mouse [2]; [23],150 mg/kg/day
same,LOAEL,mouse [3]; [24],1050 mg/kg/day
same,NOAEL,mouse [3]; [24],< 1050 mg/kg/day
same,LEL,mouse [3]; [25],1050 mg/kg/day
same,NEL,mouse [3]; [25],< 1050 mg/kg/day
same,LEL,rat [4]; [21],500 mg/kg/day
same,LOAEL,rat [4]; [21],500 mg/kg/day
same,NEL,rat [4]; [23],50 mg/kg/day
same,NOAEL,rat [4]; [23],50 mg/kg/day
Oc1ccccc1 [Phenol],LEL,rat [5]; [26],318 mg/kg/day
same,LOAEL,rat [5]; [26],> 318 mg/kg/day
same,NEL,rat [5]; [26],69.8 mg/kg/day
same,NOAEL,rat [5]; [26],≥ 318 mg/kg/day
same,LOAEL,rat [5]; [27],> 301 mg/kg/day
same,NOAEL,rat [5]; [27],≥ 301 mg/kg/day
same,LEL,rat [5]; [28],13.5 mg/kg/day
same,NEL,rat [5]; [28],< 13.5 mg/kg/day
same,LEL,rat [5]; [29],318 mg/kg/day
same,LOAEL,rat [5]; [29],> 318 mg/kg/day
same,NEL,rat [5]; [29],69.8 mg/kg/day
same,NOAEL,rat [5]; [29],≥ 318 mg/kg/day
same,LOAEL,rat [6]; [30],> 250 mg/kg/day
same,NOAEL,rat [6]; [30],≥ 250 mg/kg/day
same,LEL,rat [6]; [31],125 mg/kg/day
same,NEL,rat [6]; [31],< 125 mg/kg/day
same,LEL,mouse [7]; [32],280 mg/kg/day
same,LOAEL,mouse [7]; [32],> 280 mg/kg/day
same,NEL,mouse [7]; [32],140 mg/kg/day
same,NOAEL,mouse [7]; [32],≥ 280 mg/kg/day
same,LEL,mouse [7]; [33],280 mg/kg/day
same,LOAEL,mouse [7]; [33],> 280 mg/kg/day
same,NEL,mouse [7]; [33],140 mg/kg/day
same,NOAEL,mouse [7]; [33],≥ 280 mg/kg/day
same,LEL,mouse [8]; [34],375 mg/kg/day
same,NEL,mouse [8]; [34],< 375 mg/kg/day
same,LOAEL,mouse [8]; [35],> 750 mg/kg/day
same,NOAEL,mouse [8]; [35],≥ 750 mg/kg/day
CCCCC(O)(Cn1cncn1)c1ccc(Cl)cc1Cl (configuration not stated) [Hexaconazole],LEL,rat [9]; [36],0.47 mg/kg/day
same,NEL,rat [9]; [36],< 0.47 mg/kg/day
same,LOAEL,rat [9]; [37],4.7 mg/kg/day
same,NOAEL,rat [9]; [37],0.47 mg/kg/day
same,LEL,rat [10]; [38],50 mg/kg/day
same,LOAEL,rat [10]; [38],50 mg/kg/day
same,NEL,rat [10]; [38],5 mg/kg/day
same,NOAEL,rat [10]; [38],5 mg/kg/day
same,LOAEL,rat [10]; [39],50 mg/kg/day
same,NEL,rat [10]; [39],1 mg/kg/day
same,NOAEL,rat [10]; [39],5 mg/kg/day
same,LEL,"rat [10]; group: parental, systemic / pathology microscopic / liver / fatty change",5 mg/kg/day
same,LEL,rat [10]; [40],50 mg/kg/day
same,LOAEL,rat [10]; [40],50 mg/kg/day
same,NEL,rat [10]; [40],5 mg/kg/day
same,NOAEL,rat [10]; [40],5 mg/kg/day
same,LEL,dog [11],25 mg/kg/day
same,LOAEL,dog [11],25 mg/kg/day
same,NEL,dog [11],5 mg/kg/day
same,NOAEL,dog [11],5 mg/kg/day
same,NEL,dog [12]; [41],2 mg/kg/day
same,NOAEL,dog [12]; [41],2 mg/kg/day
same,LOAEL,dog [12]; systemic / organ weight / liver / absolute + systemic / pathology microscopic / liver / lipid deposition,10 mg/kg/day
same,LEL,dog [12]; systemic / organ weight / liver / absolute + systemic / pathology microscopic / liver / lipid deposition + systemic / clinical chemistry / …,10 mg/kg/day
same,LEL,rat [13]; [42],2.5 mg/kg/day
same,LOAEL,rat [13]; [42],2.5 mg/kg/day
same,NEL,rat [13]; [42],< 2.5 mg/kg/day
same,NOAEL,rat [13]; [42],< 2.5 mg/kg/day
same,LEL,rat [13]; [43],250 mg/kg/day
same,LOAEL,rat [13]; [43],250 mg/kg/day
same,NEL,rat [13]; [43],25 mg/kg/day
same,NOAEL,rat [13]; [43],25 mg/kg/day
same,LEL,rabbit; [44],50 mg/kg/day
same,LOAEL,rabbit; [44],50 mg/kg/day
same,NEL,rabbit; [45],25 mg/kg/day
same,NOAEL,rabbit; [45],25 mg/kg/day
same,LOAEL,"rabbit; group: maternal, systemic / in life observation / body weight / body weight gain",100 mg/kg/day
same,LEL,rabbit; [46],100 mg/kg/day
same,NEL,rabbit; [46],50 mg/kg/day
same,NOAEL,rabbit; [46],50 mg/kg/day
same,LEL,rat [14]; [47],2.5 mg/kg/day
same,NEL,rat [14]; [47],< 2.5 mg/kg/day
same,NOAEL,rat [14]; systemic / pathology microscopic / adrenal gland / vacuolization + systemic / clinical chemistry / alanine aminotransferase (alt/sgpt) / …,2.5 mg/kg/day
same,LOAEL,rat [14]; systemic / pathology microscopic / adrenal gland / vacuolization + systemic / pathology microscopic / liver / fatty change,25 mg/kg/day
Oc1cccc2cccnc12 [8-Hydroxyquinoline],LEL,mouse [15],900 mg/kg/day
same,LOAEL,mouse [15],900 mg/kg/day
same,NEL,mouse [15],450 mg/kg/day
same,NOAEL,mouse [15],450 mg/kg/day
same,LEL,rat [16]; [48],73 mg/kg/day
same,NEL,rat [16]; [48],< 73 mg/kg/day
same,LOAEL,rat [16]; [49],> 143 mg/kg/day
same,NOAEL,rat [16]; [49],≥ 143 mg/kg/day
same,LOAEL,rat [17]; [50],300 mg/kg/day
same,NEL,rat [17]; [50],75 mg/kg/day
same,NOAEL,rat [17]; [50],150 mg/kg/day
same,LEL,rat [17]; [48],150 mg/kg/day
same,LOAEL,mouse [18]; [50],> 396 mg/kg/day
same,NOAEL,mouse [18]; [50],≥ 396 mg/kg/day
same,LEL,mouse [18]; [48],217 mg/kg/day
same,NEL,mouse [18]; [48],< 217 mg/kg/day
CC#C[C@]1(O)CC[C@H]2[C@@H]3CCC4=CC(=O)CCC4=C3[C@@H](c3ccc(N(C)C)cc3)C[C@@]21C [Mifepristone],LEL,rat [19],200 ppm
same,LOAEL,rat [19],> 600 ppm
same,NEL,rat [19],< 200 ppm
same,NOAEL,rat [19],≥ 600 ppm
CCOc1cccc(-n2cc(C(=O)N3CCN(c4cc(C(=O)[O-])c5ccccc5c4)CC3)nc2-c2ccc(C)cc2)c1.[Na+],LOAEL,rat [20]; [51],> 500 mg/kg/day
same,NOAEL,rat [20]; [51],≥ 500 mg/kg/day
same,LEL,rat [20]; [52],10 mg/kg/day
same,NEL,rat [20]; [52],< 10 mg/kg/day
